Experimental data from PubChem BioAssay AID1259407 (Chemical Carcinogenesis Research Information System (CCRIS), 2018).
The source made the active and inactive calls. How the calls were made is not given here.

Test system: CCRIS mutagenicity, Ames/micronucleus/aberration tests
Assay: CCRIS mutagenicity studies
[1] = Test System: AMES SALMONELLA TYPHIMURIUM, Strain/Indicator: TA100, Metabolic Activation: NONE, Method: PREINCUBATION
[2] = Test System: AMES SALMONELLA TYPHIMURIUM, Strain/Indicator: TA98, Metabolic Activation: NONE, Method: STANDARD PLATE
[3] = Test System: AMES SALMONELLA TYPHIMURIUM, Strain/Indicator: TA100, Metabolic Activation: NONE, Method: STANDARD PLATE

Measured: mutagenic call

[Cl][Sb]([Cl])([Cl])([Cl])[Cl]
inactive: Test System: AMES SALMONELLA TYPHIMURIUM, Strain/Indicator: TA98, Metabolic Activation: NONE, Method: PREINCUBATION inactive; negative | Test System: AMES SALMONELLA TYPHIMURIUM, Strain/Indicator: TA98, Metabolic Activation: RAT, LIVER, S-9 (10%), Method: PREINCUBATION inactive; negative | [1] inactive; negative | Test System: AMES SALMONELLA TYPHIMURIUM, Strain/Indicator: TA100, Metabolic Activation: RAT, LIVER, S-9 (10%), Method: PREINCUBATION inactive; negative

CN1C(=O)[C@]23CC4=CC=C[C@H](O)[C@H]4N2C(=O)[C@@]1(CO)SS3
inactive: [2] inactive; negative | Test System: AMES SALMONELLA TYPHIMURIUM, Strain/Indicator: TA98, Metabolic Activation: RAT LIVER S-9 MIX, Method: STANDARD PLATE inactive; negative | Test System: AMES SALMONELLA TYPHIMURIUM, Strain/Indicator: TA98, Metabolic Activation: S-9, Method: STANDARD PLATE inactive; negative | [3] inactive; negative | Test System: AMES SALMONELLA TYPHIMURIUM, Strain/Indicator: TA100, Metabolic Activation: RAT LIVER S-9 MIX, Method: STANDARD PLATE inactive; negative | Test System: AMES SALMONELLA TYPHIMURIUM, Strain/Indicator: TA100, Metabolic Activation: S-9, Method: STANDARD PLATE inactive; negative | Test System: AMES SALMONELLA TYPHIMURIUM, Strain/Indicator: TA102, Metabolic Activation: NONE, Method: STANDARD PLATE inactive; negative | Test System: AMES SALMONELLA TYPHIMURIUM, Strain/Indicator: TA102, Metabolic Activation: RAT LIVER S-9 MIX, Method: STANDARD PLATE inactive; negative | Test System: AMES SALMONELLA TYPHIMURIUM, Strain/Indicator: TA1537, Metabolic Activation: NONE, Method: STANDARD PLATE inactive; negative | Test System: AMES SALMONELLA TYPHIMURIUM, Strain/Indicator: TA1537, Metabolic Activation: S-9, Method: STANDARD PLATE inactive; negative

[Cl][Pt][Cl].c1cc2c3c(c1)CCCN3CCC2
active: Test System: E. COLI, Strain/Indicator: TM9, Metabolic Activation: NONE, Method: STANDARD PLATE active; positive
inactive: Test System: AMES SALMONELLA TYPHIMURIUM, Strain/Indicator: TA92, Metabolic Activation: NONE, Method: STANDARD PLATE inactive; negative | [2] inactive; negative | [3] inactive; negative | Test System: AMES SALMONELLA TYPHIMURIUM, Strain/Indicator: TA2410, Metabolic Activation: NONE, Method: STANDARD PLATE inactive; negative | Test System: E. COLI, Strain/Indicator: TM6, Metabolic Activation: NONE, Method: STANDARD PLATE inactive; negative

O=[N+]([O-])c1c2c(cc3ccccc13)[C@@H](O)[C@H](O)C=C2
inactive: [3] inactive; negative | Test System: AMES SALMONELLA TYPHIMURIUM, Strain/Indicator: TA100, Metabolic Activation: RAT, LIVER, S-9, Method: STANDARD PLATE inactive; negative
active: [2] active; positive | Test System: AMES SALMONELLA TYPHIMURIUM, Strain/Indicator: TA98, Metabolic Activation: RAT, LIVER, S-9, Method: STANDARD PLATE active; positive

O=C/C=C/c1ccc([N+](=O)[O-])cc1
inactive: Test System: AMES SALMONELLA TYPHIMURIUM, Strain/Indicator: TA100(NR), Metabolic Activation: NONE, Method: PREINCUBATION inactive; negative | Test System: MOUSE LYMPHOMA, Strain/Indicator: L5178Y (TK+/TK-), Metabolic Activation: RAT, LIVER, S-9, AROCLOR 1254, Method: SUSPENSION/PLATE inactive; negative. reevaluation of results: negative
active: Test System: AMES SALMONELLA TYPHIMURIUM, Strain/Indicator: TA98, Metabolic Activation: HAMSTER, LIVER, S-9, AROCLOR 1254, Method: STANDARD PLATE active; positive | [2] active; positive | Test System: AMES SALMONELLA TYPHIMURIUM, Strain/Indicator: TA98, Metabolic Activation: RAT, LIVER, S-9, AROCLOR 1254, Method: STANDARD PLATE active; positive | Test System: AMES SALMONELLA TYPHIMURIUM, Strain/Indicator: TA100(1,8-DNP6), Metabolic Activation: NONE, Method: PREINCUBATION active; positive | Test System: AMES SALMONELLA TYPHIMURIUM, Strain/Indicator: TA100(1,8-DNP6), Metabolic Activation: RAT, LIVER, S-9, AROCLOR 1254, Method: PREINCUBATION active; positive | Test System: AMES SALMONELLA TYPHIMURIUM, Strain/Indicator: TA100(NR), Metabolic Activation: RAT, LIVER, S-9, AROCLOR 1254, Method: PREINCUBATION active; positive | Test System: AMES SALMONELLA TYPHIMURIUM, Strain/Indicator: TA100, Metabolic Activation: HAMSTER, LIVER, S-9, AROCLOR 1254, Method: STANDARD PLATE active; positive | [1] active; positive | [3] active; positive | Test System: AMES SALMONELLA TYPHIMURIUM, Strain/Indicator: TA100, Metabolic Activation: RAT, LIVER, S-9, AROCLOR 1254, Method: PREINCUBATION active; positive | Test System: AMES SALMONELLA TYPHIMURIUM, Strain/Indicator: TA100, Metabolic Activation: RAT, LIVER, S-9, AROCLOR 1254, Method: STANDARD PLATE active; positive | Test System: MOUSE LYMPHOMA, Strain/Indicator: L5178Y (TK+/TK-), Metabolic Activation: NONE, Method: SUSPENSION/PLATE active; positive. reevaluation of results: positive

c1ccc2c(c1)-c1cc3ccccc3c3cc4c(c-2c13)CCCC4
active: Test System: AMES SALMONELLA TYPHIMURIUM, Strain/Indicator: TA100, Metabolic Activation: RAT, LIVER, S-9, 3-METHYLCHOLANTHRENE, Method: STANDARD PLATE active; positive
